How the values were obtained:
Assay in all cases: relative viability (nuclei count vs DMSO), 5 days (fraction); higher = more cells survive
Bleomycin + Foretinib = compound: CC1=C(N=C(N=C1N)[C@H](CC(=O)N)NC[C@@H](C(=O)N)N)C(=O)N[C@@H]([C@H](C2=CN=CN2)OC3C(C(C(C(O3)CO)O)O)OC4C(C(C(C(O4)CO)O)OC(=O)N)O)C(=O)N[C@H](C)[C@H]([C@H](C)C(=O)N[C@@H]([C@@H](C)O)C(=O)NCCC5=NC(=CS5)C6=NC(=CS6)C(=O)NCCC[S+](C)C)O [Bleomycin] + COc1cc2c(Oc3ccc(NC(=O)C4(C(=O)Nc5ccc(F)cc5)CC4)cc3F)ccnc2cc1OCCCN1CCOCC1 [Foretinib] (partner 0.25 µM); conditions: main component drawn
Outline: (§1)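 Lung cancer cell lines in 1536-well plates got either a single drug or a fixed anchor-drug dose together with five library-drug doses (not always all listed) in √10 steps, by pin tool, on the day after seeding. Nuclei were counted after 5 days, and relative viability is the treated-to-vehicle ratio of nuclei counts. Values are medians of duplicate plates.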

Bleomycin + Crizotinib = compound: CC1=C(N=C(N=C1N)[C@H](CC(=O)N)NC[C@@H](C(=O)N)N)C(=O)N[C@@H]([C@H](C2=CN=CN2)OC3C(C(C(C(O3)CO)O)O)OC4C(C(C(C(O4)CO)O)OC(=O)N)O)C(=O)N[C@H](C)[C@H]([C@H](C)C(=O)N[C@@H]([C@@H](C)O)C(=O)NCCC5=NC(=CS5)C6=NC(=CS6)C(=O)NCCC[S+](C)C)O [Bleomycin] + C[C@@H](Oc1cc(-c2cnn(C3CCNCC3)c2)cnc1N)c1c(Cl)ccc(F)c1Cl [Crizotinib] (partner 1 µM); conditions: main component drawn
Outline: as §1

Bleomycin + Linsitinib = compound: CC1=C(N=C(N=C1N)[C@H](CC(=O)N)NC[C@@H](C(=O)N)N)C(=O)N[C@@H]([C@H](C2=CN=CN2)OC3C(C(C(C(O3)CO)O)O)OC4C(C(C(C(O4)CO)O)OC(=O)N)O)C(=O)N[C@H](C)[C@H]([C@H](C)C(=O)N[C@@H]([C@@H](C)O)C(=O)NCCC5=NC(=CS5)C6=NC(=CS6)C(=O)NCCC[S+](C)C)O [Bleomycin] + C[C@]1(O)C[C@@H](c2nc(-c3ccc4ccc(-c5ccccc5)nc4c3)c3c(N)nccn32)C1 [Linsitinib] (partner 1 µM); conditions: main component drawn
Outline: as §1

Etoposide + Pictilisib = compound: COc1cc([C@@H]2c3cc4c(cc3[C@@H](O[C@@H]3O[C@@H]5CO[C@@H](C)O[C@H]5[C@H](O)[C@H]3O)[C@H]3COC(=O)[C@H]23)OCO4)cc(OC)c1O [Etoposide] + CS(=O)(=O)N1CCN(Cc2cc3nc(-c4cccc5[nH]ncc45)nc(N4CCOCC4)c3s2)CC1 [Pictilisib] (partner 1 µM)
Outline: as §1

Cell Line	relative viability (Bleomycin + Foretinib; first compound 0.01 µM)	relative viability (Bleomycin + Foretinib; first compound 0.03162 µM)	relative viability (Bleomycin + Foretinib; first compound 0.1 µM)	relative viability (Bleomycin + Foretinib; first compound 0.3162 µM)	relative viability (Bleomycin + Foretinib; first compound 1 µM)	relative viability (Bleomycin + Crizotinib; first compound 0.01 µM)	relative viability (Bleomycin + Crizotinib; first compound 0.03162 µM)	relative viability (Bleomycin + Crizotinib; first compound 0.1 µM)	relative viability (Bleomycin + Crizotinib; first compound 0.3162 µM)	relative viability (Bleomycin + Crizotinib; first compound 1 µM)	relative viability (Bleomycin + Linsitinib; first compound 0.01 µM)	relative viability (Bleomycin + Linsitinib; first compound 0.03162 µM)	relative viability (Bleomycin + Linsitinib; first compound 0.1 µM)	relative viability (Bleomycin + Linsitinib; first compound 0.3162 µM)	relative viability (Bleomycin + Linsitinib; first compound 1 µM)	relative viability (Etoposide + Pictilisib; first compound 0.01 µM)	relative viability (Etoposide + Pictilisib; first compound 0.03162 µM)	relative viability (Etoposide + Pictilisib; first compound 0.1 µM)	relative viability (Etoposide + Pictilisib; first compound 0.3162 µM)	relative viability (Etoposide + Pictilisib; first compound 1 µM)
EBC-1	0.104	0.106	0.107	0.106	0.105	0.204	0.193	0.2	0.198	0.151	0.829	0.72	0.78	0.698	0.366	0.362	0.384	0.218	0.287	0.156
NCI-H2405	0.929	1.04	0.992	0.796	0.585	0.695	0.8	0.713	0.45	0.372	0.745	0.834	0.69	0.373	0.341	0.455	0.508	0.268	0.399	0.315
NCI-H1993	0.809	0.667	0.796	0.644	0.479	0.629	0.712	0.693	0.678	0.527	0.736	0.745	0.693	0.59	0.518	0.804	0.802	0.806	0.915	0.66
NCI-H441	0.72	0.613	1.08	0.623	0.46	–	0.534	0.469	0.363	0.398	–	0.57	0.564	0.209	0.255	0.38	0.425	0.267	0.149	0.147
PC-14	0.773	0.566	0.447	0.137	0.0938	0.578	0.516	0.259	0.105	0.0849	0.578	0.51	0.309	0.118	0.119	0.598	0.638	0.543	0.371	0.289
HARA	0.794	0.793	0.777	0.397	0.379	0.938	0.952	0.974	0.54	0.36	0.944	1.02	0.887	0.457	0.467	0.3	0.545	0.255	0.449	0.086
NCI-H2126	1.17	1.26	1.23	0.903	0.491	0.932	1.1	0.982	0.948	0.801	0.641	0.756	0.687	0.645	0.546	0.536	0.55	0.419	0.392	0.332
NCI-H1437	1.18	1.12	0.959	0.695	0.619	0.803	0.811	0.736	0.476	0.382	0.88	0.936	0.85	0.417	0.357	0.588	0.504	0.21	0.209	0.122
NCI-H661	0.896	0.924	0.689	0.393	0.357	0.82	0.943	0.745	0.508	0.425	0.563	0.423	0.312	0.221	0.217	0.543	0.453	0.309	0.32	0.26
COR-L23	0.825	0.781	0.412	0.154	0.144	0.444	0.317	0.226	0.0998	0.099	0.696	0.559	0.307	0.106	0.102	0.733	0.726	0.401	0.418	0.122
COR-L 105	0.895	1	0.952	0.761	0.498	0.587	0.875	0.52	0.368	0.364	0.765	0.798	0.708	0.393	0.317	0.374	0.395	0.337	0.327	0.335
LK-2	0.803	0.779	0.743	0.36	0.285	0.237	0.216	0.213	0.229	0.273	0.418	0.373	0.318	0.198	0.255	0.573	0.572	0.407	0.476	0.26
201T	0.902	0.928	0.825	0.548	0.336	0.997	0.947	0.902	0.843	0.784	0.959	1.05	1.05	1	0.83	0.677	0.767	0.652	0.63	0.445
NCI-H647	0.482	0.308	0.212	0.0979	0.073	0.313	0.326	0.213	0.135	0.109	0.649	0.487	0.321	0.13	0.102	0.418	0.394	0.257	0.208	0.0798
H3255	0.705	0.813	0.699	0.553	0.432	0.61	0.742	0.55	0.378	0.287	0.702	0.879	0.902	0.538	0.387	0.498	0.499	0.381	0.411	0.298
NCI-H650	0.837	0.915	0.823	0.564	0.288	0.502	0.718	0.629	0.237	0.303	0.585	0.791	0.582	0.328	0.199	0.865	0.843	0.415	0.362	0.221
NCI-H2023	0.717	0.641	0.522	0.245	0.162	0.473	0.447	0.346	0.131	0.104	0.543	0.465	0.321	0.143	0.106	0.225	0.255	0.145	0.124	0.0878
NCI-H2347	0.852	0.97	0.628	0.319	0.692	0.707	0.677	0.744	0.362	0.515	0.848	0.846	0.831	0.484	0.464	0.921	0.757	0.309	0.285	0.392
NCI-H1944	0.55	0.391	0.384	0.225	0.203	0.544	0.565	0.432	0.237	0.186	0.781	0.815	0.5	0.507	0.238	0.362	0.39	0.27	0.294	0.222
NCI-H596	0.586	0.629	0.464	0.354	0.247	0.896	0.661	0.558	0.409	0.475	0.79	0.73	0.554	0.442	0.43	0.398	0.427	–	0.375	0.36
A549	0.812	0.917	0.635	0.182	0.0665	0.601	0.562	0.339	0.0813	0.0619	0.514	0.472	0.384	0.0789	0.0779	0.49	0.432	0.221	0.0914	0.0659
NCI-H520	0.677	0.742	0.743	0.37	0.537	0.531	0.898	0.735	0.505	0.4	0.949	0.987	0.973	0.687	0.566	0.306	0.307	0.27	0.277	0.223
EKVX	0.707	0.889	0.423	0.335	0.314	0.87	0.803	0.7	0.448	0.316	0.909	0.822	0.859	0.375	0.336	0.447	0.429	0.208	0.309	0.241
NCI-H358	0.606	0.591	0.556	0.351	0.254	0.484	0.486	0.514	0.29	0.263	0.674	0.738	0.666	0.455	0.39	0.382	0.336	0.259	0.23	0.16
EPLC-272H	0.61	0.653	0.51	0.17	0.1	0.776	0.88	0.655	0.358	0.152	1.21	1.06	1.08	1.45	0.196	0.345	0.371	0.281	0.278	0.233
NCI-H1563	0.838	0.803	0.734	0.647	0.61	0.714	0.694	0.723	0.594	0.518	0.919	0.891	0.749	0.642	0.623	0.661	0.653	0.61	0.501	0.555
NCI-H2228	0.853	0.741	0.695	0.274	0.191	0.393	0.362	0.488	0.318	0.327	0.675	0.647	0.714	0.559	0.4	0.351	0.411	0.167	0.229	0.109
LXF-289	0.933	0.888	0.804	0.36	0.14	0.725	0.678	0.679	0.239	0.149	0.899	0.91	0.839	0.389	0.186	0.807	0.849	0.655	0.556	0.152

Source: the supplement of paper PMC10307832
